Test results as given in patent US20130196954A1, “METHOD OF TREATING ACNE” (priority 2010, published 2013).

Tests used:
moderate or severe acne = test: Phase 2 randomized, double-blind, placebo-controlled clinical study, efficacy; assay type: in vivo, human; conditions: ITT; for Reduction from baseline in inflammatory lesion count / Success Rate (IGA clear or almost clear): oral once daily
Experimental: As used herein, “success rate” means the percentage of subjects who achieve a score of “clear” or “almost clear” by Investigator's Global Assessment (IGA) (Inflammatory): A phase 2, multi-center, randomized, double-blind, parallel group, placebo-controlled study was conducted. The treatments were (1) 40 mg doxycycline tablet containing 30 mg IR and 10 mg DR (CD2575/101); (2) doxycycline 100 mg capsules; and (3) placebos (double dummy), which were administered orally once daily. Patients having moderate or severe acne (25 to 75 inflammatory lesions on the face (including the nose) were subjects in the study. Total 660 subjects (220/group) were divided in a 1:1:1 randomization for the three treatments. The treatments lasted 16 weeks. The following were measured for efficacy studies: change from baseline to week 16 (LOCF, ITT) in inflammatory lesion counts (primary endpoint); success rate at week 16 (LOCF, ITT); percent change in inflammatory lesion counts from baseline to week 16 (LOCF, ITT); percent change in total lesion counts from baseline to week 16 (LOCF, ITT); change from baseline to week 16 (LOCF, ITT) in non-inflammatory lesion counts; global assessment for inflammatory lesions of truncal acne at baseline, week 12, and week 16/ET visit, etc. The investigator evaluated the subject's acne at every study visit using the Investigator's Global Assessment (Inflammatory) scale as that described above. The IGA scale in this study focused on inflammatory lesions as the mode of study drug action in acne vulgaris is primarily anti-inflammatory. Onset of efficacy was to be determined for the change in inflammatory lesions and for the success rate, by analyzing time points earlier than week 16

[1] = Phase 2 clinical study, safety (adverse events); assay type: in vivo, human
Experimental: A phase 2, multi-center, randomized, double-blind, parallel group, placebo-controlled study was conducted. The treatments were (1) 40 mg doxycycline tablet containing 30 mg IR and 10 mg DR (CD2575/101); (2) doxycycline 100 mg capsules; and (3) placebos (double dummy), which were administered orally once daily.
Patients having moderate or severe acne (25 to 75 inflammatory lesions on the face (including the nose) were subjects in the study. Total 660 subjects (220/group) were divided in a 1:1:1 randomization for the three treatments. The treatments lasted 16 weeks.
The safety studies included standard safety reporting. Adverse events of special interest included phototoxicity; pseudotumor cerebri; and pseudomembranous colitis. Vital signs were observed by the investigator at each visit. Lab tests were conducted at 0, 8 & 16 weeks.

[2] = N = 216 (40 mg), N = 223 (100 mg)

Which results are given for `C[C@H]1c2cccc(O)c2C(=O)C2=C(O)[C@]3(O)C(=O)C(C(N)=O)=C(O)[C@@H](N(C)C)[C@@H]3[C@@H](O)[C@@H]21` [Doxycycline 100 mg, doxycycline]?
Median % Change in Inflammatory Lesion Count (moderate or severe acne; Week 12 (LOCF)): −46.7%; Median % change in Total Lesion Count (moderate or severe acne; Week 12 (LOCF)): −30.6%; Reduction in inflammatory lesion count, delta vs placebo (moderate or severe acne; Week 12 (LOCF)): 0.3; Success Rate, delta vs placebo (moderate or severe acne; Week 12 (LOCF)): −1.4; Reduction from baseline in inflammatory lesion count (moderate or severe acne; Week 12 (LOCF)): 12.2 (0.604); Success Rate (IGA clear or almost clear) (moderate or severe acne; Week 12 (LOCF)): 5.4% (0.536); Median % Change in Inflammatory Lesion Count (moderate or severe acne; Week 16 (LOCF)): −47.3%; Median % change in Total Lesion Count (moderate or severe acne; Week 16 (LOCF)): −35.9%; Reduction in inflammatory lesion count, delta vs placebo (moderate or severe acne; Week 16 (LOCF)): 0.3; Success Rate, delta vs placebo (moderate or severe acne; Week 16 (LOCF)): 6.1; Reduction from baseline in inflammatory lesion count (moderate or severe acne; Week 16 (LOCF)): 12.9 (0.595); Success Rate (IGA clear or almost clear) (moderate or severe acne; Week 16 (LOCF)): 13.8% (0.035); drug related AEs (nausea, vomiting & headaches) ([1]; 16 weeks once daily oral): 38; Total Number of AE(s) ([1]; 16 weeks once daily oral, N = 216 (40 mg), N = 223 (100 mg)): 50; Abdominal discomfort, number of subjects [1, 2]: 4; Abdominal discomfort, percent of subjects [1, 2]: (1.8%); Dizziness, number of subjects [1, 2]: 1; Dizziness, percent of subjects [1, 2]: (0.4%); Headache, number of subjects [1, 2]: 6; Headache, percent of subjects [1, 2]: (2.7%); Nausea, number of subjects [1, 2]: 12; Nausea, percent of subjects [1, 2]: (5.4%); Tinnitus, number of subjects [1, 2]: 0; Total Number of Subjects with AE(s), number [1, 2]: 38; Total Number of Subjects with AE(s), percent [1, 2]: (17.0%); Urticaria, number of subjects [1, 2]: 2; Urticaria, percent of subjects [1, 2]: (0.9%); Vomiting, number of subjects [1, 2]: 14; Vomiting, percent of subjects [1, 2]: (6.3%); Vulvovaginal mycotic infection, number of subjects [1, 2]: 1; Vulvovaginal mycotic infection, percent of subjects [1, 2]: (0.4%)
